Key:
Assay type in all cases: cell-based
K-562 = test: NCI-60 cell line panel: K-562; design: TGI: unit not given here
Description: (§1) It was carried out at the NCI, Bethesda, MD, USA, utilizing their standard protocol.

OVCAR-5 = test: NCI-60 cell line panel: OVCAR-5; conditions: Ovarian Cancer
Description: as §1

RPMI-8226 = test: NCI-60 cell line panel: RPMI-8226; conditions: Leukemia
Description: as §1

T-47D = test: NCI-60 cell line panel: T-47D; conditions: Breast Cancer
Description: as §1

NCI/ADR-RES = test: NCI-60 cell line panel: NCI/ADR-RES; design: TGI: unit not given here; conditions: Ovarian Cancer
Description: as §1

SK-MEL-28 = test: NCI-60 cell line panel: SK-MEL-28; conditions: Melanoma
Description: as §1

CAKI-1 = test: NCI-60 cell line panel: CAKI-1; design: TGI: unit not given here; conditions: Renal Cancer
Description: as §1

ACHN = test: NCI-60 cell line panel: ACHN; conditions: Renal Cancer
Description: as §1

DU-145 = test: NCI-60 cell line panel: DU-145; conditions: Prostate Cancer
Description: as §1

SF-268 = test: NCI-60 cell line panel: SF-268; conditions: CNS Cancer
Description: as §1

HL-60(TB) = test: NCI-60 cell line panel: HL-60(TB); design: TGI: unit not given here; conditions: Leukemia
Description: as §1

KM12 = test: NCI-60 cell line panel: KM12; conditions: Colon Cancer
Description: as §1

UO-31 = test: NCI-60 cell line panel: UO-31; design: TGI: unit not given here; conditions: Renal Cancer
Description: as §1

MDA-MB-435 = test: NCI-60 cell line panel: MDA-MB-435; design: TGI: unit not given here; conditions: Melanoma
Description: as §1

SK-OV-3 = test: NCI-60 cell line panel: SK-OV-3; conditions: Ovarian Cancer
Description: as §1

A498 = test: NCI-60 cell line panel: A498; conditions: Renal Cancer
Description: as §1

SNB-75 = test: NCI-60 cell line panel: SNB-75; design: TGI: unit not given here; conditions: CNS Cancer
Description: as §1

CCRF-CEM = test: NCI-60 cell line panel: CCRF-CEM; conditions: Leukemia
Description: as §1

NCI-H226 = test: NCI-60 cell line panel: NCI-H226; conditions: Non-Small Cell Lung Cancer
Description: as §1

[1] = system: hepatocellular carcinoma cell lines; test: Screening against HCC cell lines
Description: The target compounds were tested against hepatocellular carcinoma cell lines. Compounds 1j. 13a. 13b. 13c. […] The mean inhibition percentage values are illustrated in Table 9.
Two HCC cell lines (Hep3B and HepG2) were used for screening the antiproliferative activity of the synthesized compounds. The cell lines were obtained from the European Collection of Cell Cultures (ECACC, UK) and maintained in Dulbecco's Modified Eagle Medium (DMEM: Sigma-Aldrich) supplemented with 10% fetal bovine serum (FBS) and 1% penicillin/streptomycin and incubated at 37° C. in a 5% CO2 air atmosphere. In addition, WI-38 normal cell line was used to investigate the safety of these compounds.
MTT assay was conducted to calculate the IC50 of the compounds following the reported procedure . Briefly, the cells were seeded in 96-well tissue culture plates with a density of 5×10^4 cells/well and incubated overnight at 37° C. in a 5% CO2 air atmosphere. After that, cells were treated with the newly synthesized compounds or sorafenib as a positive control. DMSO was used as a negative control. After 48 h, the media were aspirated, and replaced with media containing 0.5 mg/mL of MTT tetrazolium dye (Sigma-Aldrich) for 2 h at 37° C. Finally, the media were removed and 200 μL of DMSO was added to solubilize the formazan crystals. Absorbance was then measured at 570 nm using Varioskan Flash multimode plate reader (Thermo Scientific, Massachusetts, USA).

SR = test: NCI-60 cell line panel: SR; conditions: Leukemia
Description: as §1

HCT-15 = test: NCI-60 cell line panel: HCT-15; conditions: Colon Cancer
Description: as §1

SF-539 = test: NCI-60 cell line panel: SF-539; conditions: CNS Cancer
Description: as §1

RXF 393 = test: NCI-60 cell line panel: RXF 393; conditions: Renal Cancer
Description: as §1

TK-10 = test: NCI-60 cell line panel: TK-10; conditions: Renal Cancer
Description: as §1

M14 = test: NCI-60 cell line panel: M14; conditions: Melanoma
Description: as §1

IGROV1 = test: NCI-60 cell line panel: IGROV1
Description: as §1

SW-620 = test: NCI-60 cell line panel: SW-620; conditions: Colon Cancer
Description: as §1

MDA-MB-231/ATCC = test: NCI-60 cell line panel: MDA-MB-231/ATCC; conditions: Breast Cancer
Description: as §1

HCC-2998 = test: NCI-60 cell line panel: HCC-2998; conditions: Colon Cancer
Description: as §1

CNC(=O)c1cc(-c2ccc(NC(=O)Nc3ccc(N4CCN(C)CC4)c(C(F)(F)F)c3)cc2)nc2cccnc12 [Compound 13b, N-Methyl-2-(4-(3-(4-(4-methylpiperazin-1-yl)-3-(trifluoromethyl)phenyl)ureido)phenyl)-1,5-naphthyridine-4-carboxamide]
IC50 (K-562; Homo sapiens, K562, Leukemia): 2.12 µM
TGI (K-562; Leukemia, total growth inhibition): 5.35
IC50 (OVCAR-5; Homo sapiens): 15.6 µM
TGI (OVCAR-5; total growth inhibition): 29 µM
IC50 (RPMI-8226; Homo sapiens): 3.85 µM
TGI (RPMI-8226; total growth inhibition): 25 µM
TGI (T-47D; total growth inhibition): 43.4 µM
IC50 (T-47D; Homo sapiens, T47D): 17 µM
IC50 (NCI/ADR-RES; Homo sapiens): 14.2 µM
TGI (NCI/ADR-RES; total growth inhibition): 45.4
IC50 (SK-MEL-28; Homo sapiens): 1.67 µM
TGI (SK-MEL-28; total growth inhibition): 3.11 µM
IC50 (CAKI-1; Homo sapiens): 16.1 µM
TGI (CAKI-1; total growth inhibition): 29.6
IC50 (ACHN; Homo sapiens): 15.5 µM
TGI (ACHN; total growth inhibition): 28.9 µM
IC50 (DU-145; Homo sapiens): 17.6 µM
TGI (DU-145; total growth inhibition): 35.6 µM
TGI (SF-268; total growth inhibition): 39.2 µM
IC50 (SF-268; Homo sapiens): 17.5 µM
IC50 (HL-60(TB); Homo sapiens): 16.2 µM
TGI (HL-60(TB); total growth inhibition): 38.7
TGI (KM12; total growth inhibition): 43.3 µM
IC50 (KM12; Homo sapiens): 17.4 µM
IC50 (UO-31; Homo sapiens): 15.3 µM
TGI (UO-31; total growth inhibition): 29.2
IC50 (MDA-MB-435; Homo sapiens): 1.75 µM
TGI (MDA-MB-435; total growth inhibition): 3.27
IC50 (SK-OV-3; Homo sapiens): 18.5 µM
TGI (SK-OV-3; total growth inhibition): 34.7 µM
IC50 (A498; Homo sapiens): ≥ 100 µM
TGI (A498; total growth inhibition): 100 µM
TGI (SNB-75; total growth inhibition): 28.4
IC50 (SNB-75; Homo sapiens): 14.9 µM
IC50 (CCRF-CEM; Homo sapiens): 3.16 µM
TGI (CCRF-CEM; total growth inhibition): 74.1 µM
IC50 (NCI-H226; Homo sapiens): 18 µM
TGI (NCI-H226; total growth inhibition): 39.7 µM
inhibition activity against hepatocellular carcinoma cell lines compared with sorafenib [1]: higher inhibition activity than sorafenib
IC50 (SR; Homo sapiens): 9.97 µM
TGI (SR; total growth inhibition): 44.6 µM
TGI (HCT-15; total growth inhibition): 4.33 µM
IC50 (HCT-15; Homo sapiens): 2.07 µM
TGI (SF-539; total growth inhibition): 26.5 µM
IC50 (SF-539; Homo sapiens): 13.6 µM
IC50 (RXF 393; Homo sapiens): 3.38 µM
TGI (RXF 393; total growth inhibition): 15 µM
IC50 (TK-10; Homo sapiens): 18.5 µM
TGI (TK-10; total growth inhibition): 33.2 µM
IC50 (M14; Homo sapiens): 1.79 µM
TGI (M14; total growth inhibition): 3.71 µM
IC50 (IGROV1; Homo sapiens, IGROV-1, Ovarian Cancer): 17.7 µM
TGI (IGROV1; Ovarian Cancer, total growth inhibition): 36.6 µM
TGI (SW-620; total growth inhibition): 4.62 µM
IC50 (SW-620; Homo sapiens): 2.11 µM
TGI (MDA-MB-231/ATCC; total growth inhibition): 38.1 µM
IC50 (MDA-MB-231/ATCC; Homo sapiens): 17.5 µM
TGI (HCC-2998; total growth inhibition): 34.6 µM
IC50 (HCC-2998; Homo sapiens): 18 µM
